# Earlier results in patent US4196187A, “Rumen-stable pellets” (Eastman Kodak Company, priority 1977, dated 1980).
# Columns and labels:
# [1] = Example 1
smiles,measurement,setting,value
CSCCC(N)C(=O)O (racemic) [DL - Methionone],Solubility g./100 g. water at 25° C.,,4.0 g./100 g. water
Cl.NCCCC[C@H](N)C(=O)O [L-Lysine monohydrochloride],soluble to the extent of,"25° C., water",about 70 g./100 g. of water
same,acidity of a saturated solution (pH),[1],5.5
